Source: ChEMBL document CHEMBL1131205, “Rational design and synthesis of novel, potent bis-phenylamidine carboxylate factor Xa inhibitors” (J Med Chem, 1998)
pKi: −log10 of the molar value.

Legend:
Serine protease 1 = Serine protease 1 (Homo sapiens, UniProt P07477); assay: In vitro inhibition of trypsin
Coagulation factor X = Coagulation factor X (Homo sapiens, UniProt P00742); assay: In vitro inhibition of Coagulation factor X
Prothrombin = Prothrombin (Homo sapiens, UniProt P00734); assay: In vitro inhibition of thrombin

Chain of Serine protease 1 (P07477 whole entry): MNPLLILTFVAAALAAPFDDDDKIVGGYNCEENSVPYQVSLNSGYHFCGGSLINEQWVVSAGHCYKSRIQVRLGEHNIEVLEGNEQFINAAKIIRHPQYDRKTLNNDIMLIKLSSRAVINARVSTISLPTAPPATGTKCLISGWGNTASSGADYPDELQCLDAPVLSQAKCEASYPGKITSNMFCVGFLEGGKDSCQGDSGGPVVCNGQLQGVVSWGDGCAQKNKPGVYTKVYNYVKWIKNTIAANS
Chain of Coagulation factor X (P00742 41-179 limits assumed): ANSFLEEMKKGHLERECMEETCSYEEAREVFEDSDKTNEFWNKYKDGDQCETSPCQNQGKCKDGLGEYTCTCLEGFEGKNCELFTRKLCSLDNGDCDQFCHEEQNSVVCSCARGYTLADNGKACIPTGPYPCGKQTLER
Chain of Coagulation factor X (P00742 235-488 limits assumed): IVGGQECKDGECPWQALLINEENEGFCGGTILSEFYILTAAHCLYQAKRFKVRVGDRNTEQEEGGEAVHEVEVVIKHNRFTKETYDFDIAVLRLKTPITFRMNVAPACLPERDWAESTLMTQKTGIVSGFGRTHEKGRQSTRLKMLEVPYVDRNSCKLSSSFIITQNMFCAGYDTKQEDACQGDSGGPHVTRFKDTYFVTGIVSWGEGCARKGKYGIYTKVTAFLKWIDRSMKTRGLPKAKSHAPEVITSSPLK

Compound | pKi (Serine protease 1) | pKi (Coagulation factor X) | pKi (Prothrombin)
COC(=O)CC(CCc1ccc(NS(C)(=O)=O)cc1)c1cccc(C(=N)N)c1 (centres undefined) | 6.96 | 6.18 | 5.51
COC(=O)CC(CCc1ccc(N=C(N)N)cc1)c1cccc(C(=N)N)c1 (centres undefined) | 7.02 | 8.05 | 5.51
CCOC(=O)CC(CCc1ccc(C(=N)N)cc1)c1ccc(C(=N)N)cc1 (centres undefined) | – | 4.64 | 5.92
N=C(N)c1ccc(CCC(=O)c2cccc(C(=N)N)c2)cc1 | – | 5.29 | 5.36
COC(=O)CC(CCc1ccc(N)cc1)c1cccc(C(=N)N)c1 (centres undefined) | 5.92 | 5.30 | 5.11
COC(=O)CC(CCCCc1ccc(N=C(N)N)cc1)c1cccc(C(=N)N)c1 (centres undefined) | 6.12 | 7.24 | 5.48
CCOC(=O)CC(CCc1ccc(C(=N)N)cc1)c1ccccc1 (centres undefined) | – | < 4.52 | 5.21
COC(=O)CC(CCc1ccc(C(=O)OC)cc1)c1cccc(C(=N)N)c1 (centres undefined) | 6.48 | 5.55 | 5.44
COC(=O)CC(CCc1ccc(NS(=O)(=O)c2ccccc2)cc1)c1cccc(C(=N)N)c1 (centres undefined) | 6.21 | 5.96 | 5.76
CCOC(=O)CC(CCc1ccccc1)c1cccc(C(=N)N)c1 (centres undefined) | – | 5.54 | < 5.68

Results, then the molecule that gave them:

pKi (Serine protease 1) | pKi (Coagulation factor X) | pKi (Prothrombin) | Compound
6.09 | 6.03 | 5.10 | CNC(=O)CC(CCc1ccc(C(=N)N)cc1)c1cccc(C(=N)N)c1 (centres undefined)
6.06 | 6.26 | 5.19 | COC(=O)CC(CCc1ccc(C(N)=O)cc1)c1cccc(C(=N)N)c1 (centres undefined)
6.36 | 5.94 | 5.55 | N=C(N)c1ccc(CCC(CC(=O)N2CCCC2)c2cccc(C(=N)N)c2)cc1 (centres undefined)
– | 5.62 | 4.90 | COC(=O)CNC(=O)CC(CCc1ccc(C(=N)N)cc1)c1cccc(C(=N)N)c1 (centres undefined)
6.96 | 7.38 | 5.96 | CCOC(=O)CC(CCc1ccc(C(=N)N)cc1)c1cccc(C(=N)N)c1 (centres undefined)
7.00 | 7.47 | 5.92 | COC(=O)CC(CCc1ccc(C(=N)N)cc1)c1cccc(C(=N)N)c1 (centres undefined)
– | 5.62 | 4.71 | CONC(=O)CC(CCc1ccc(C(=N)N)cc1)c1cccc(C(=N)N)c1 (centres undefined)
< 5.92 | – | < 5.38 | N=C(N)c1ccc(CCC(CC(=O)O)c2cccc(C(=N)N)c2)cc1 (centres undefined)
– | 5.55 | 5.07 | COC(=O)CC(CCc1cccc(C(=N)N)c1)c1cccc(C(=N)N)c1 (centres undefined)
6.85 | 6.72 | 5.81 | CC(C)OC(=O)CC(CCc1ccc(C(=N)N)cc1)c1cccc(C(=N)N)c1 (centres undefined)
– | 5.78 | 5.46 | CCOC(=O)CC(CCc1cccc(C(=N)N)c1)c1ccc(C(=N)N)cc1 (centres undefined)
